The record followed here is the supplement of paper PMC10307832.

Common to all, as to assay: relative viability (nuclei count vs DMSO), 5 days (fraction); higher = more cells survive
Compound in the assay “Fedratinib + Bortezomib”: Cc1cnc(Nc2ccc(OCCN3CCCC3)cc2)nc1Nc1cccc(S(=O)(=O)NC(C)(C)C)c1 [Fedratinib] + CC(C)C[C@H](NC(=O)[C@H](Cc1ccccc1)NC(=O)c1cnccn1)B(O)O [Bortezomib] (partner 0.002 µM)
In outline:
(§1)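 A single step with final 0.05% Triton X-100, 1% formaldehyde and 1 ug/ml Hoechst fixed the cells and stained nuclei 5 days after treatment. Lung cancer cell lines in 1536-well plates had been treated by pin tool the day after seeding with one drug alone or a fixed anchor-drug dose plus five library-drug doses (not always all listed) in √10 steps, and nuclei were counted on 4× images. Relative viability is the ratio of nuclei in treated wells to nuclei in vehicle wells, taken as the median of duplicate plates.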

Compound in the assay “Fedratinib + Olaparib”: Cc1cnc(Nc2ccc(OCCN3CCCC3)cc2)nc1Nc1cccc(S(=O)(=O)NC(C)(C)C)c1 [Fedratinib] + O=C(c1cc(Cc2n[nH]c(=O)c3ccccc23)ccc1F)N1CCN(C(=O)C2CC2)CC1 [Olaparib] (partner 8 µM)
In outline: as §1

Compound in the assay “GW-2580 + Tozasertib”: COC1=CC=C(C=C1)COC2=C(C=C(C=C2)CC3=CN=C(N=C3N)N)OC [GW-2580] + Cc1cc(Nc2cc(N3CCN(C)CC3)nc(Sc3ccc(NC(=O)C4CC4)cc3)n2)n[nH]1 [Tozasertib] (partner 0.1 µM)
In outline: as §1

Compound in the assay “GW-2580 + Foretinib”: COC1=CC=C(C=C1)COC2=C(C=C(C=C2)CC3=CN=C(N=C3N)N)OC [GW-2580] + COc1cc2c(Oc3ccc(NC(=O)C4(C(=O)Nc5ccc(F)cc5)CC4)cc3F)ccnc2cc1OCCCN1CCOCC1 [Foretinib] (partner 0.25 µM)
In outline: as §1

Compound in the assay “Fedratinib + Palbociclib”: Cc1cnc(Nc2ccc(OCCN3CCCC3)cc2)nc1Nc1cccc(S(=O)(=O)NC(C)(C)C)c1 [Fedratinib] + CC(=O)c1c(C)c2cnc(Nc3ccc(N4CCNCC4)cn3)nc2n(C2CCCC2)c1=O [Palbociclib] (partner 0.5 µM)
In outline: as §1

Compound in the assay “Fedratinib + Dasatinib”: Cc1cnc(Nc2ccc(OCCN3CCCC3)cc2)nc1Nc1cccc(S(=O)(=O)NC(C)(C)C)c1 [Fedratinib] + Cc1nc(Nc2ncc(C(=O)Nc3c(C)cccc3Cl)s2)cc(N2CCN(CCO)CC2)n1 [Dasatinib] (partner 0.075 µM)
In outline: as §1

UMC-11: the relative viability came out at 0.603 with Fedratinib + Bortezomib (first compound 0.1 µM); 0.758 with Fedratinib + Bortezomib (first compound 0.3162 µM); 0.396 with Fedratinib + Bortezomib (first compound 1 µM); 0.3 in the assay with Fedratinib + Olaparib (first compound 0.1 µM); 0.33 in the assay with Fedratinib + Olaparib (first compound 0.3162 µM); 0.23 with Fedratinib + Olaparib (first compound 1 µM). In addition, the relative viability turned out to be 0.206 in the assay with GW-2580 + Tozasertib (first compound 0.08 µM); 0.284 with GW-2580 + Tozasertib (first compound 0.8 µM); 0.198 with GW-2580 + Tozasertib (first compound 2.53 µM); 0.197 with GW-2580 + Tozasertib (first compound 8 µM); 1.06 in the assay with GW-2580 + Foretinib (first compound 0.08 µM); 1.04 with GW-2580 + Foretinib (first compound 0.8 µM). The relative viability came out at 1.1 in the assay with GW-2580 + Foretinib (first compound 2.53 µM); 1.23 with GW-2580 + Foretinib (first compound 8 µM); 0.345 with Fedratinib + Palbociclib (first compound 0.1 µM); 0.311 with Fedratinib + Palbociclib (first compound 0.3162 µM); 0.301 with Fedratinib + Palbociclib (first compound 1 µM); 0.53 with Fedratinib + Dasatinib (first compound 0.1 µM). In addition, the relative viability in the assay with Fedratinib + Dasatinib (first compound 0.3162 µM) amounted to 0.412; with Fedratinib + Dasatinib (first compound 1 µM), 0.453.
